According to PubChem BioAssay AID1918933 (Molecular Pharmacology Branch, DTP, NCI, 2023):

Tested on: 186277-243-T-J2-PDC complex spheroid viability
Experiment: Anticancer human tumor 186277-243-T-J2-PDC patient-derived colon adenocarcinoma cell line growth inhibition
Details: for IC50: curve of first compound; for viability, T/C: stronger effect = lower value
How it was run: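 Multicellular complex spheroids of tumor cells with human endothelial cells (HUVEC) and mesenchymal stem cells; the LSD1 inhibitor iadademstat was combined with standard-of-care or investigational agents. Top concentration at or near clinical Cmax, half-log dilutions; final DMSO ≤0.25%.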

[1] = second compound 0.1 µM, first compound 0.00316 µM
[2] = second compound 0.1 µM, first compound 0.01 µM
[3] = second compound 0.1 µM, first compound 0.0316 µM
[4] = second compound 0.1 µM, first compound 0.1 µM
[5] = second compound 0.1 µM, first compound 0.316 µM
[6] = second compound 0.1 µM, first compound 1 µM
[7] = second compound 0.316 µM, first compound 0.00316 µM
[8] = second compound 0.316 µM, first compound 0.01 µM
[9] = second compound 0.316 µM, first compound 0.0316 µM
[10] = second compound 0.316 µM, first compound 0.1 µM
[11] = second compound 0.316 µM, first compound 0.316 µM
[12] = second compound 0.316 µM, first compound 1 µM
[13] = second compound 1 µM, first compound 0.00316 µM
[14] = second compound 1 µM, first compound 0.01 µM
[15] = second compound 1 µM, first compound 0.0316 µM
[16] = second compound 1 µM, first compound 0.1 µM
[17] = second compound 1 µM, first compound 0.316 µM
[18] = second compound 1 µM, first compound 1 µM
[19] = second compound 3.16 µM, first compound 0.00316 µM
[20] = second compound 3.16 µM, first compound 0.01 µM
[21] = second compound 3.16 µM, first compound 0.0316 µM
[22] = second compound 3.16 µM, first compound 0.1 µM
[23] = second compound 3.16 µM, first compound 0.316 µM
[24] = second compound 3.16 µM, first compound 1 µM
[25] = second compound 10 µM, first compound 0.00316 µM
[26] = second compound 10 µM, first compound 0.01 µM
[27] = second compound 10 µM, first compound 0.0316 µM
[28] = second compound 10 µM, first compound 0.1 µM
[29] = second compound 10 µM, first compound 0.316 µM
[30] = second compound 10 µM, first compound 1 µM
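Also: 7 day exposure to compounds.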
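For viability, T/C in this document: 100% = DMSO vehicle control viability.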

Question: For `O=C(C=Cn1cnc(-c2cc(C(F)(F)F)cc(C(F)(F)F)c2)n1)NNc1cnccn1` + NC1CC1c1ccc(-c2cccc(O)c2)cc1, which IC50 (second compound 0.1 µM) is on record?
Answer: Its IC50 is 0.0565 µM.

Question: What about the IC50 (second compound 0.316 µM) of the same molecule?
Answer: Its IC50 is 0.0572 µM.

Question: What about the IC50 (second compound 1 µM) of the same molecule?
Answer: The IC50 was 0.06 µM.

Question: And the IC50 (second compound 3.16 µM)?
Answer: Its IC50 is 0.0584 µM.

Question: What about the IC50 (second compound 10 µM) of the same molecule?
Answer: The IC50 was 0.0525 µM.

Question: What about the viability, T/C [1] of the same molecule?
Answer: Its viability, T/C is 97.5%.

Question: And the viability, T/C [2]?
Answer: The viability, T/C was 96%.

Question: And the viability, T/C [3]?
Answer: Its viability, T/C is 84.8%.

Question: What about the viability, T/C [4] of the same molecule?
Answer: Its viability, T/C is 15.7%.

Question: What about the viability, T/C [5] of the same molecule?
Answer: Its viability, T/C is 2.81%.

Question: And the viability, T/C [6]?
Answer: The viability, T/C was 1.29%.

Question: What about the viability, T/C [7] of the same molecule?
Answer: The viability, T/C was 104%.

Question: What about the viability, T/C [8] of the same molecule?
Answer: The viability, T/C was 105%.

Question: What about the viability, T/C [9] of the same molecule?
Answer: Its viability, T/C is 88.3%.

Question: What about the viability, T/C [10] of the same molecule?
Answer: Its viability, T/C is 13.8%.

Question: And the viability, T/C [11]?
Answer: The viability, T/C was 2.94%.

Question: And the viability, T/C [12]?
Answer: Its viability, T/C is 1.28%.

Question: What about the viability, T/C [13] of the same molecule?
Answer: The viability, T/C was 104%.

Question: And the viability, T/C [14]?
Answer: Its viability, T/C is 106%.

Question: And the viability, T/C [15]?
Answer: The viability, T/C was 93.1%.

Question: What about the viability, T/C [16] of the same molecule?
Answer: Its viability, T/C is 15.5%.

Question: And the viability, T/C [17]?
Answer: The viability, T/C was 3.14%.

Question: What about the viability, T/C [18] of the same molecule?
Answer: The viability, T/C was 1.35%.

Question: And the viability, T/C [19]?
Answer: Its viability, T/C is 110%.

Question: And the viability, T/C [20]?
Answer: The viability, T/C was 116%.

Question: What about the viability, T/C [21] of the same molecule?
Answer: The viability, T/C was 91%.

Question: And the viability, T/C [22]?
Answer: The viability, T/C was 14%.

Question: What about the viability, T/C [23] of the same molecule?
Answer: The viability, T/C was 2.92%.

Question: And the viability, T/C [24]?
Answer: The viability, T/C was 1.47%.

Question: What about the viability, T/C [25] of the same molecule?
Answer: The viability, T/C was 94.1%.

Question: What about the viability, T/C [26] of the same molecule?
Answer: Its viability, T/C is 95.2%.

Question: And the viability, T/C [27]?
Answer: Its viability, T/C is 78.8%.

Question: And the viability, T/C [28]?
Answer: Its viability, T/C is 13.3%.

Question: And the viability, T/C [29]?
Answer: Its viability, T/C is 3.41%.

Question: What about the viability, T/C [30] of the same molecule?
Answer: The viability, T/C was 1.57%.

Question: With `COc1cc(C2c3cc4c(cc3C(OC3OC5COC(C)OC5C(O)C3O)C3COC(=O)C23)OCO4)cc(OC)c1O` (stereo not given) + NC1CCC(NC2CC2c2ccccc2)CC1 as the molecule, how does the IC50 (second compound 0.1 µM) read?
Answer: Its IC50 is 2.71 µM.

Question: What about the IC50 (second compound 0.316 µM) of the same molecule?
Answer: The IC50 was 2.75 µM.

Question: What about the IC50 (second compound 1 µM) of the same molecule?
Answer: The IC50 was greater than 3 µM.

Question: What about the IC50 (second compound 3.16 µM) of the same molecule?
Answer: The IC50 was greater than 3 µM.

Question: What about the IC50 (second compound 10 µM) of the same molecule?
Answer: Its IC50 is greater than 3 µM.

Question: And the viability, T/C (second compound 0.1 µM, first compound 0.00949 µM)?
Answer: The viability, T/C was 93%.

Question: What about the viability, T/C (second compound 0.1 µM, first compound 0.03 µM) of the same molecule?
Answer: Its viability, T/C is 125%.

Question: What about the viability, T/C (second compound 0.1 µM, first compound 0.0949 µM) of the same molecule?
Answer: The viability, T/C was 144%.

Question: What about the viability, T/C (second compound 0.1 µM, first compound 0.3 µM) of the same molecule?
Answer: The viability, T/C was 98.6%.

Question: And the viability, T/C (second compound 0.1 µM, first compound 0.949 µM)?
Answer: The viability, T/C was 74.2%.

Question: And the viability, T/C (second compound 0.1 µM, first compound 3 µM)?
Answer: Its viability, T/C is 46.9%.

Question: And the viability, T/C (second compound 0.316 µM, first compound 0.00949 µM)?
Answer: Its viability, T/C is 120%.

Question: And the viability, T/C (second compound 0.316 µM, first compound 0.03 µM)?
Answer: The viability, T/C was 121%.

Question: And the viability, T/C (second compound 0.316 µM, first compound 0.0949 µM)?
Answer: Its viability, T/C is 150%.

Question: What about the viability, T/C (second compound 0.316 µM, first compound 0.3 µM) of the same molecule?
Answer: Its viability, T/C is 98.7%.

Question: And the viability, T/C (second compound 0.316 µM, first compound 0.949 µM)?
Answer: Its viability, T/C is 72.9%.

Question: What about the viability, T/C (second compound 0.316 µM, first compound 3 µM) of the same molecule?
Answer: Its viability, T/C is 46.1%.

Question: And the viability, T/C (second compound 1 µM, first compound 0.00949 µM)?
Answer: Its viability, T/C is 109%.

Question: What about the viability, T/C (second compound 1 µM, first compound 0.03 µM) of the same molecule?
Answer: The viability, T/C was 111%.

Question: And the viability, T/C (second compound 1 µM, first compound 0.0949 µM)?
Answer: The viability, T/C was 150%.

Question: And the viability, T/C (second compound 1 µM, first compound 0.3 µM)?
Answer: The viability, T/C was 99.5%.

Question: And the viability, T/C (second compound 1 µM, first compound 0.949 µM)?
Answer: The viability, T/C was 71.4%.

Question: What about the viability, T/C (second compound 1 µM, first compound 3 µM) of the same molecule?
Answer: The viability, T/C was 49.2%.

Question: What about the viability, T/C (second compound 3.16 µM, first compound 0.00949 µM) of the same molecule?
Answer: Its viability, T/C is 111%.

Question: And the viability, T/C (second compound 3.16 µM, first compound 0.03 µM)?
Answer: Its viability, T/C is 111%.

Question: And the viability, T/C (second compound 3.16 µM, first compound 0.0949 µM)?
Answer: The viability, T/C was 155%.

Question: What about the viability, T/C (second compound 3.16 µM, first compound 0.3 µM) of the same molecule?
Answer: Its viability, T/C is 104%.

Question: And the viability, T/C (second compound 3.16 µM, first compound 0.949 µM)?
Answer: Its viability, T/C is 77.6%.

Question: And the viability, T/C (second compound 3.16 µM, first compound 3 µM)?
Answer: Its viability, T/C is 52.3%.

Question: What about the viability, T/C (second compound 10 µM, first compound 0.00949 µM) of the same molecule?
Answer: The viability, T/C was 113%.

Question: What about the viability, T/C (second compound 10 µM, first compound 0.03 µM) of the same molecule?
Answer: The viability, T/C was 111%.

Question: What about the viability, T/C (second compound 10 µM, first compound 0.0949 µM) of the same molecule?
Answer: The viability, T/C was 150%.

Question: What about the viability, T/C (second compound 10 µM, first compound 0.3 µM) of the same molecule?
Answer: Its viability, T/C is 109%.

Question: What about the viability, T/C (second compound 10 µM, first compound 0.949 µM) of the same molecule?
Answer: Its viability, T/C is 81.5%.

Question: What about the viability, T/C (second compound 10 µM, first compound 3 µM) of the same molecule?
Answer: The viability, T/C was 57.4%.

Question: Which results are given for `Nc1ncn(C2CC(O)C(CO)O2)c(=O)n1` (stereo not given) + NC1CCC(NC2CC2c2ccccc2)CC1?
Answer: IC50 (second compound 0.1 µM): > 1 µM; IC50 (second compound 0.316 µM): > 1 µM; IC50 (second compound 1 µM): > 1 µM; IC50 (second compound 3.16 µM): > 1 µM; IC50 (second compound 10 µM): > 1 µM; viability, T/C [1]: 97.6%; viability, T/C [2]: 110%; viability, T/C [3]: 98.2%; viability, T/C [4]: 129%; viability, T/C [5]: 139%; viability, T/C [6]: 142%; viability, T/C [7]: 95.9%; viability, T/C [8]: 111%; viability, T/C [9]: 107%; viability, T/C [10]: 127%; viability, T/C [11]: 141%; viability, T/C [12]: 138%; viability, T/C [13]: 102%; viability, T/C [14]: 119%; viability, T/C [15]: 111%; viability, T/C [16]: 130%; viability, T/C [17]: 127%; viability, T/C [18]: 135%; viability, T/C [19]: 101%; viability, T/C [20]: 108%; viability, T/C [21]: 112%; viability, T/C [22]: 137%; viability, T/C [23]: 151%; viability, T/C [24]: 138%; viability, T/C [25]: 113%; viability, T/C [26]: 105%; viability, T/C [27]: 116%; viability, T/C [28]: 140%; viability, T/C [29]: 140%; viability, T/C [30]: 132%
